Experimental data taken from patent publication US20210052703A1 (SHANGHAI BENEMAE PHARMACEUTICAL CORPORATION, priority 2018, published 2021).

How the values were obtained:
[1] = system: diabetes patients; settings: 0.2 mg TID for 12 weeks; temporary
[2] = system: Sprague-Dawley (SD) rats; assay: stomach emptying in male and female SD rats, various dosages (Example 6); settings: for % of Gastric Remains / Gross Weight of Stomach / Propelling Distance of Carbon Powder / Propelling Rate of Carbon Powder: X ± SE
Experimental: Five minutes after subcutaneous injection, gavage was conducted using 5% carbon powder suspension (in 2% carboxymethylcellulose solution) at 1.5 ml/100 g body weight. […] The stomach was wiped dry with filter paper and weighed for the gross weight of the stomach. Then the content of the stomach was removed and the stomach was weighed for the net weight. The respective distance from the pyloric sphincter to the front of carbon powder suspension and to the distal end of the large intestine was measured. • propelling distance of carbon powder in the intestine (cm)=distance from pylorus to the proximal end of carbon powder; • mass of carbon powder gavaged=concentration of carbon powder suspension×volume; • propelling rate of carbon powder (%)=propelling distance of carbon powder in the intestine (cm)/entire length of intestine (cm)×100%; • rate of gastric remains (%)=(gross weight of stomach−net weight of stomach)/mass of carbon powder gavaged×100%.
The animals were fasted 29-33 hours before injection, and the animals were not given any water 5-7 hours before injection. Injections were made by subcutaneous administration to the neck, at 0.1 ml/100 g body weight.

[3] = body weight, food intake and body composition in diet-induced obesity cynomolgus monkeys (Example 4); settings: both, cynomolgus monkey, in vivo, sc
Experimental: (§1) The monkeys are divided into two groups based on age, sex, body weight and BMI, each group having one male and one female.
(§2) The study included three periods: baseline period (the first week), treatment period (the second week through the seventh week), and recovering period (the eighth week). After the monkeys adapted to the meal time for at least 30 days, the body weight, BMI, and body composition of each animal was determined at day 7 of the first baseline period.
(§3) Group 2 animals were administered three times a day at a dose of 10 μg/kg each time during week 2, three times a day at a dose of 20 μg/kg each time during week 3, and three times a day at a dose of 40 μg/kg each time during the first three days of week 4.
(§4) The dose for Group 1 animals during week 5 through week 7 was determined based on the dose given to Group 2 animals during week 2 through week 4. Group 1 animals were administered twice a day at a dose of 10 μg/kg each time during week 5, twice a day at a dose of 20 μg/kg each time during week 6, and twice a day at a dose of 20 μg/kg each time during week 7 (same dose as week 6). During the 6-week treatment period, the body weight and crown-rump height of each animal were measured at the end of each week. The body fat content was measured at week 4 and week 7. No administration was given during week 8.
(§5) The body weight was measured once a week, and crown-rump height was measured at the end of week 1, week 4, and week 7 when Dual-Energy X-ray Absorptiometry (DEXA) scan was taken. The animals were anesthetized by intramuscular administration of 0.02 m/kg Shumianning. While resting on one side, the animals were measured from the top of the head to the bottom of tail as the crown-rump height. BMI was calculated using the formula: BMI=body weight (kg)/crown-rump height (m)^2. DEXA scan was conducted while the animals were anesthetized and body compositions were analyzed based on DEXA scan.

[4] = system: diet-induced obesity cynomolgus monkeys; assay: as above
Experimental: as §1, §2, §3, §4, §5

[5] = female rats, 10 μg/kg subcutaneous
[6] = female rats, 12.5 μg/kg subcutaneous
[7] = female rats, 15 μg/kg subcutaneous
[8] = female rats, 30 μg/kg subcutaneous
[9] = female rats, 45 μg/kg subcutaneous
[10] = female rats, 60 μg/kg subcutaneous
[11] = male rats, 10 μg/kg subcutaneous
[12] = male rats, 12.5 μg/kg subcutaneous
[13] = male rats, 15 μg/kg subcutaneous
[14] = male rats, 30 μg/kg subcutaneous
[15] = male rats, 45 μg/kg subcutaneous
[16] = male rats, 60 μg/kg subcutaneous

SMILES: CC[C@H](C)[C@H](NC(=O)[C@H](Cc1ccccc1)NC(=O)[C@H](CCC(=O)O)NC(=O)[C@H](CCCCN)NC(=O)[C@H](C)NC(=O)[C@H](C)NC(=O)[C@H](CCC(N)=O)NC(=O)CNC(=O)[C@H](CCC(=O)O)NC(=O)[C@H](CC(C)C)NC(=O)[C@H](Cc1ccc(O)cc1)NC(=O)[C@H](CO)NC(=O)[C@H](CO)NC(=O)[C@@H](NC(=O)[C@H](CC(=O)O)NC(=O)[C@H](CO)NC(=O)[C@@H](NC(=O)[C@H](Cc1ccccc1)NC(=O)[C@@H](NC(=O)CNC(=O)[C@H](CCC(=O)O)NC(=O)[C@H](C)NC(=O)[C@@H](N)Cc1cnc[nH]1)[C@@H](C)O)[C@@H](C)O)C(C)C)C(=O)N[C@@H](C)C(=O)N[C@@H](Cc1c[nH]c2ccccc12)C(=O)N[C@@H](CC(C)C)C(=O)N[C@H](C(=O)N[C@@H](CCCCN)C(=O)NCC(=O)N[C@@H](CCCNC(=N)N)C(=O)O)C(C)C [Beinaglutide]
- most common side effects [1]: nausea and vomiting
- minimal effective dosage (inhibition of stomach emptying) ([2]; female rats): 10 µg/kg
- % of Gastric Remains [2, 5]: 36.42 ± 6.50%
- Gross Weight of Stomach [2, 5]: 1.86 ± 0.14 g
- Propelling Distance of Carbon Powder [2, 5]: 53.01 ± 3.12 cm
- Propelling Rate of Carbon Powder [2, 5]: 49.92 ± 2.97 %
- % of Gastric Remains [2, 6]: 47.54 ± 5.22%
- Gross Weight of Stomach [2, 6]: 2.03 ± 0.10 g
- Propelling Distance of Carbon Powder [2, 6]: 49.50 ± 2.54 cm
- Propelling Rate of Carbon Powder [2, 6]: 46.83 ± 2.41 %
- % of Gastric Remains [2, 7]: 51.86 ± 6.07%
- Gross Weight of Stomach [2, 7]: 2.18 ± 0.11 g
- Propelling Distance of Carbon Powder [2, 7]: 44.50 ± 2.97 cm
- Propelling Rate of Carbon Powder [2, 7]: 41.26 ± 2.63 %
- % of Gastric Remains [2, 8]: 73.35 ± 16.68 %
- Gross Weight of Stomach [2, 8]: 2.59 ± 0.38 g
- Propelling Distance of Carbon Powder [2, 8]: 33.96 ± 5.58 cm
- Propelling Rate of Carbon Powder [2, 8]: 32.15 ± 5.54 %
- % of Gastric Remains [2, 9]: 120.95 ± 9.48 %
- Gross Weight of Stomach [2, 9]: 3.55 ± 0.21 g
- Propelling Distance of Carbon Powder [2, 9]: 25.06 ± 5.91 cm
- Propelling Rate of Carbon Powder [2, 9]: 23.18 ± 5.46 %
- % of Gastric Remains [2, 10]: 141.28 ± 8.90 %
- Gross Weight of Stomach [2, 10]: 3.90 ± 0.20 g
- Propelling Distance of Carbon Powder [2, 10]: 15.71 ± 4.58 cm
- Propelling Rate of Carbon Powder [2, 10]: 14.36 ± 4.08 %
- human dose corresponding to minimal effective dosage ([2]; from female rats 10 μg/kg): 0.11 mg/day
- human dose corresponding to minimal effective dosage ([2]; from male rats 30 μg/kg): 0.33 mg/day
- minimal effective dosage (inhibition of stomach emptying) ([2]; male rats): 30 µg/kg
- % of Gastric Remains [2, 11]: 39.93 ± 6.46%
- Gross Weight of Stomach [2, 11]: 2.39 ± 0.19 g
- Propelling Distance of Carbon Powder [2, 11]: 55.20 ± 2.69 cm
- Propelling Rate of Carbon Powder [2, 11]: 50.91 ± 2.84%
- % of Gastric Remains [2, 12]: 38.98 ± 3.50%
- Gross Weight of Stomach [2, 12]: 2.36 ± 0.09 g
- Propelling Distance of Carbon Powder [2, 12]: 54.96 ± 3.96 cm
- Propelling Rate of Carbon Powder [2, 12]: 50.36 ± 3.34%
- % of Gastric Remains [2, 13]: 40.22 ± 7.06%
- Gross Weight of Stomach [2, 13]: 2.42 ± 0.20 g
- Propelling Distance of Carbon Powder [2, 13]: 52.27 ± 3.75 cm
- Propelling Rate of Carbon Powder [2, 13]: 48.22 ± 3.05%
- % of Gastric Remains [2, 14]: 58.23 ± 7.38 %
- Gross Weight of Stomach [2, 14]: 2.92 ± 0.23 g
- Propelling Distance of Carbon Powder [2, 14]: 42.82 ± 2.81 cm
- Propelling Rate of Carbon Powder [2, 14]: 38.55 ± 2.81 %
- % of Gastric Remains [2, 15]: 97.66 ± 9.95 %
- Gross Weight of Stomach [2, 15]: 3.90 ± 0.27 g
- Propelling Distance of Carbon Powder [2, 15]: 15.73 ± 4.30 cm
- Propelling Rate of Carbon Powder [2, 15]: 14.67 ± 4.13 %
- % of Gastric Remains [2, 16]: 110.28 ± 7.79 %
- Gross Weight of Stomach [2, 16]: 4.21 ± 0.19 g
- Propelling Distance of Carbon Powder [2, 16]: 14.64 ± 4.32 cm
- Propelling Rate of Carbon Powder [2, 16]: 12.91 ± 3.68 %
- MTD at 504 h [3]: 0.02 to 0.04 mg/kg
- body fat content ([4]; Group 1, end of week 7, compared to baseline): decrease in body fat content
- body fat content ([4]; Group 2, end of week 4, compared to baseline): significant decrease in body fat content
- signs of anorexia ([4]; Group 2, 40 μg/kg three times a day, first three days of week 4): severe signs of anorexia
- Body Weight ([4]; animal F1 (female, Group 1), Week 5, 10 μg/kg twice a day, Week 4 before treatment 5.96): 5.92 kg
- BMI ([4]; animal F1, Week 5, 10 μg/kg twice a day, Week 4 before treatment 41): 39 kg/m^2
- Body Weight ([4]; animal F1, Week 6, 20 μg/kg twice a day, Week 4 before treatment 5.96): 5.94 kg
- BMI ([4]; animal F1, Week 6, 20 μg/kg twice a day, Week 4 before treatment 41): 39 kg/m^2
- Body Weight ([4]; animal F1, Week 7, 20 μg/kg twice a day, Week 4 before treatment 5.96): 5.84 kg
- BMI ([4]; animal F1, Week 7, 20 μg/kg twice a day, Week 4 before treatment 41): 38 kg/m^2
- Fat Content (DEXA) ([4]; animal F1, Week 7, after Beinaglutide weeks 5-7, Week 4 1.98): 1.81 kg
- Lean Mass (DEXA) ([4]; animal F1, Week 7, after Beinaglutide weeks 5-7, Week 4 4.09): 3.98 kg
- Body Fat Percentage ([4]; animal F1, Week 7, after Beinaglutide weeks 5-7, Week 4 33.2): 31.0%
- Body Weight ([4]; animal F2 (female, Group 2), Week 2, 10 μg/kg three times a day, Week 1 baseline 6.18): 5.96 kg
- Body Weight ([4]; animal F2, Week 3, 20 μg/kg three times a day, Week 1 baseline 6.18): 5.76 kg
- Body Weight ([4]; animal F2, Week 4, 40/20 μg/kg three times a day, Week 1 baseline 6.18): 5.56 kg
- BMI ([4]; animal F2, Week 4, 40/20 μg/kg three times a day, Week 1 baseline 41): 37 kg/m^2
- Fat Content (DEXA) ([4]; animal F2, Week 4, after Beinaglutide weeks 2-4, baseline 2.97): 2.71 kg
- Lean Mass (DEXA) ([4]; animal F2, Week 4, after Beinaglutide weeks 2-4, baseline 3.17): 2.89 kg
- Body Fat Percentage ([4]; animal F2, Week 4, after Beinaglutide weeks 2-4, baseline 48.1): 48.7%
- Body Weight ([4]; animal M1 (male, Group 1), Week 5, 10 μg/kg twice a day, Week 4 before treatment 11.20): 10.90 kg
- BMI ([4]; animal M1, Week 5, 10 μg/kg twice a day, Week 4 before treatment 51): 49 kg/m^2
- Body Weight ([4]; animal M1, Week 6, 20 μg/kg twice a day, Week 4 before treatment 11.20): 10.44 kg
- BMI ([4]; animal M1, Week 6, 20 μg/kg twice a day, Week 4 before treatment 51): 47 kg/m^2
- Body Weight ([4]; animal M1, Week 7, 20 μg/kg twice a day, Week 4 before treatment 11.20): 10.26 kg
- BMI ([4]; animal M1, Week 7, 20 μg/kg twice a day, Week 4 before treatment 51): 46 kg/m^2
- Fat Content (DEXA) ([4]; animal M1, Week 7, after Beinaglutide weeks 5-7, Week 4 3.66): 3.15 kg
- Lean Mass (DEXA) ([4]; animal M1, Week 7, after Beinaglutide weeks 5-7, Week 4 7.35): 6.92 kg
- Body Fat Percentage ([4]; animal M1, Week 7, after Beinaglutide weeks 5-7, Week 4 32.7): 30.7%
- Body Weight ([4]; animal M2 (male, Group 2), Week 2, 10 μg/kg three times a day, Week 1 baseline 10.52): 10.30 kg
- BMI ([4]; animal M2, Week 2, 10 μg/kg three times a day, Week 1 baseline 52): 51 kg/m^2
- Body Weight ([4]; animal M2, Week 3, 20 μg/kg three times a day, Week 1 baseline 10.52): 10.00 kg
- Body Weight ([4]; animal M2, Week 4, 40/20 μg/kg three times a day, Week 1 baseline 10.52): 9.70 kg
- BMI ([4]; animal M2, Week 4, 40/20 μg/kg three times a day, Week 1 baseline 52): 48 kg/m^2
- Fat Content (DEXA) ([4]; animal M2, Week 4, after Beinaglutide weeks 2-4, baseline 3.49): 2.88 kg
- Lean Mass (DEXA) ([4]; animal M2, Week 4, after Beinaglutide weeks 2-4, baseline 6.88): 6.59 kg
- Body Fat Percentage ([4]; animal M2, Week 4, after Beinaglutide weeks 2-4, baseline 33.2): 29.7%
- body weight after three-week treatment ([4]; compared to baseline period, n=4, p<0.05): significant weight loss
- weekly food/calories intake ([4]; during Beinaglutide treatment period compared to before treatment, p<0.05): significantly decreased
- BMI after three weeks of treatment ([4]; two groups of animals): decreased
